In patent publication EP4678638A1, “NEW E3 UBIQUITIN LIGASE LIGAND, PROTEIN DEGRADATION AGENT AND USE THEREOF” (priority 2023, dated 2024):
Like-named read-outs stand apart in the source and are kept apart here. Each block holds one compound with its values, some of them ahead of it.

Legend:
CCRF-CEM = test: CCK-8 proliferation, CCRF-CEM; format: cell-based, Human; conditions: Homo sapiens
Method in brief: (§1)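 CCK-8 viability readout; IC50 from growth-inhibition curve fitting. Cells plated, dosed 24h later with a 10-point series, top 10µM, 5-fold steps. Culture at 37°C, 5% CO2.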

MM.1S = test: CCK-8 proliferation, MM.1S; format: cell-based; conditions: Homo sapiens, MM1.S
Method in brief: as §1

Jurkat = test: CCK-8 proliferation, Jurkat; format: cell-based, Human; conditions: Homo sapiens; Table B10, compounds designed based on the IRAK4 inhibitors; Jurkat cells; read-out: Inhibitory activity (IC50, nM) on tumor cell proliferation, Jurkat
Method in brief: as §1

LNcap = test: CCK-8 proliferation, LNcap; format: cell-based; conditions: Homo sapiens
Protocol: (§2) The tumor cells used herein were cultured in a cell culture medium listed in table A1 at 37°C in an incubator with 5% CO2. Prior to experimentation, all cell lines used were correctly identified by STR profiling, and tested negative for mycoplasma contamination using a mycoplasma detection kit through routine screenings. Table A1. Tumor cells and cell culture medium used in the present disclosure
(§3) IC50 values of the compounds of the present disclosure (including the compounds in Table 1, and compounds of examples) were measured using the Meilun Cell Counting Kit-8 kit from Dalian Meilun Biotech Co., Ltd. Assay details are as follows: tumor cells were seeded in a 96-well plate at a density listed in Table A2. After 24h, 100 µL of the inoculated cells were treated with 0.5µL of the compounds of the present disclosure (including the compounds in Tables 1 and 2, and compounds of examples) at 10 different successively decreasing concentrations (starting at the highest concentration of 10µM; 5-fold serial dilutions). After the cells were treated with the compounds of the present disclosure for a period of time, the cell viability detection reagent was added to the culture medium for cell viability assessment according to the instructions provided with the CCK-8 kit. […] The growth inhibition of the compounds of the present disclosure on cells was plotted by Prism Graphpad software, and the IC50 values of the compounds of the present disclosure were calculated therefrom. […] Seeding protocol and treatment time for tumor cells

IRAK4 = biological target: T1, IRAK4 (Homo sapiens, UniProt Q9NWZ3); test: Western blot degradation of IRAK4 (hPBMC); format: cell-based; conditions: Table D1
T1 construct: evaluate the effects of the compounds of the present disclosure on the expression of target proteins in cells; endogenous in cells; host or cells: hPBMC
T1 sequence (Q9NWZ3 1-460): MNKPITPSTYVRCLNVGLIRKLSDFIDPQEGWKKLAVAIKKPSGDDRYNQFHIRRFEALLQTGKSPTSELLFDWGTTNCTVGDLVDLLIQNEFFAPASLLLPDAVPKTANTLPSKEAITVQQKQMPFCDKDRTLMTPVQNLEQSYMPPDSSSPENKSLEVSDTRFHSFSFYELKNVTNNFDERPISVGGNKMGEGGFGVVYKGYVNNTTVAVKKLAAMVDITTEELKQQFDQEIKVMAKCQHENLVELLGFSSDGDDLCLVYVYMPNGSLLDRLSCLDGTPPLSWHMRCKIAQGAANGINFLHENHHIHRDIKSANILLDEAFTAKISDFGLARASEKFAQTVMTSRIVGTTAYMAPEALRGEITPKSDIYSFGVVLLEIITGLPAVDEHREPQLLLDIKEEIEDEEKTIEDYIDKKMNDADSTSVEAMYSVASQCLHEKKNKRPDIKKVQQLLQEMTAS
Method in brief: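 Degradation is assessed by immunoblotting lysates of treated cells. Target bands are quantified by grayscale and normalised to an internal control, so degradation rate equals 100% minus % remaining.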

MV-4-11 = test: CCK-8 proliferation, MV-4-11; format: cell-based, Human; conditions: Homo sapiens, MV4-11
Method in brief: as §1

SR = test: CCK-8 proliferation, SR; format: cell-based, Human; conditions: Homo sapiens
Method in brief: as §1

H1975 = test: CCK-8 proliferation, NCI-H1975 (H1975); format: cell-based, Human; conditions: Homo sapiens, NCI-H1975; CCK-8; 96 hours; read-out: Inhibitory activity (IC50) on tumor cell proliferation, H1975
Method in brief: as §1

MM.1R = test: CCK-8 proliferation, MM.1R; format: cell-based; conditions: CCK-8, 72 hours, read-out: Inhibitory activity (IC50) on tumor cell proliferation, MM.1R
Protocol: as §2, §3

MCF7 = test: CCK-8 proliferation, MCF7 (MCF-7); format: cell-based; conditions: Homo sapiens, MCF7; CCK-8; read-out: Inhibitory activity (IC50) on tumor cell proliferation, MCF7
Method in brief: as §1

22RV1 = test: CCK-8 proliferation, 22RV1; format: cell-based; conditions: Homo sapiens, 96 hours, read-out: Inhibitory activity (IC50) on tumor cell proliferation, 22RV1
Protocol: as §2, §3

Kasumi-1 = test: CCK-8 proliferation, Kasumi-1; format: cell-based, Human; conditions: Homo sapiens, Kasumi 1, 72 hours, read-out: Inhibitory activity (IC50) on tumor cell proliferation, Kasumi-1
Method in brief: as §1

SW620 = test: CCK-8 proliferation, SW620; format: cell-based; conditions: Homo sapiens, SW-620; CCK-8; 96 hours; read-out: Inhibitory activity (IC50) on tumor cell proliferation, SW620
Method in brief: as §1

DU-145 = test: CCK-8 proliferation, DU-145; format: cell-based; conditions: Homo sapiens, 96 hours, read-out: Inhibitory activity (IC50) on tumor cell proliferation, DU-145
Protocol: as §2, §3

[1] = Table B10, compounds designed based on the IRAK4 inhibitors, CCRF-CEM cells, read-out: Inhibitory activity (IC50, nM) on tumor cell proliferation, CCRF-CEM
[2] = Table B10, compounds designed based on the IRAK4 inhibitors, Lncap cells, read-out: Inhibitory activity (IC50, nM) on tumor cell proliferation, Lncap
[3] = Table B10, compounds designed based on the IRAK4 inhibitors, MV-4-11 cells, read-out: Inhibitory activity (IC50, nM) on tumor cell proliferation, MV-4-11
[4] = Table B10, compounds designed based on the IRAK4 inhibitors, SR cells, read-out: Inhibitory activity (IC50, nM) on tumor cell proliferation, SR
[5] = CCK-8, 72 or 96 hours, read-out: Inhibitory activity (IC50) on tumor cell proliferation, MV-4-11
[6] = SR, CCK-8, 72 hours, read-out: Inhibitory activity (IC50) on tumor cell proliferation, SR
[7] = CCRF-CEM, CCK-8, 96 hours, read-out: Inhibitory activity (IC50) on tumor cell proliferation, CCRF-CEM
[8] = CCK-8, 72 hours, read-out: Inhibitory activity (IC50) on tumor cell proliferation, MM1S

Structure (SMILES): O=C1CCC(c2ccc(CN3CCN(c4ccc(-n5cc(NC(=O)c6coc(-c7ccnc(NCC(F)(F)F)c7)n6)c(C(F)F)n5)cc4)CC3)cc2F)C(=O)N1 (stereo not drawn) [GT-04274, N-(3-(difluoromethyl)-1-(4-(4-(4-(2,6-dioxopiperidin-3-yl)-3-fluorobenzyl)piperazin-1-yl)phenyl)-1H-pyrazol-4-yl)-2-(2-((2,2,2-trifluoroethyl)amino)pyridin-4-yl)oxazole-4-carboxamide]
- IC50 (CCRF-CEM; [1]): 500 to 1000 nM
- IC50 (MM.1S; Table B10, compounds designed based on the IRAK4 inhibitors, MM.1S cells, read-out: Inhibitory activity (IC50, nM) on tumor cell proliferation, MM.1S): 100 to 500 nM
- IC50 (Jurkat): 500 to 1000 nM
- IC50 (LNcap; [2]): 100 to 500 nM
- Degradation of substrate protein IRAK4 (substrate protein remaining %) (IRAK4): A (A is defined as 0% ≤ substrate protein remaining % ≤ 80%)

Structure (SMILES): CC(C)Nc1cc(-n2ccc3cc(C#N)cnc32)ncc1C(=O)NC1CCN(Cc2ccc(C3CCC(=O)NC3=O)cc2)CC1 (stereo not drawn) [GT-04042, 6-(5-cyano-1H-pyrrolo[2,3-b]pyridin-1-yl)-N-(1-(4-(2,6-dioxopiperidin-3-yl)benzyl)piperidin-4-yl)-4-(isopropylamino)nicotinamide]
- IC50 (MV-4-11; [3]): 500 to 1000 nM
- IC50 (SR; [4]): 500 to 1000 nM
- IC50 (CCRF-CEM; [1]): 500 to 1000 nM
- IC50 (Jurkat): 500 to 1000 nM
- IC50 (LNcap; [2]): 500 to 1000 nM

Structure (SMILES): CN(Cc1ccc(C2CCC(=O)NC2=O)c(F)c1)C1CCN(c2ncc(C(=O)Nc3ccc(OC(F)(F)Cl)cc3)cc2-c2cc[nH]n2)CC1 (stereo not drawn) [GT-04027, N-(4-(chlorodifluoromethoxy)phenyl)-6-(4-((4-(2,6-dioxopiperidin-3-yl)-3-fluorobenzyl)(methyl)amino)piperidin-1-yl)-5-(1H-pyrazol-3-yl)nicotinamide]
- IC50 (SW620): 100 to 500 nM
- IC50 (LNcap; LNCaP, CCK-8, 96 hours, read-out: Inhibitory activity (IC50) on tumor cell proliferation, Lncap): 100 to 500 nM

Structure (SMILES): CC(C)Nc1cc(-n2ccc3cc(C#N)cnc32)ncc1C(=O)NC1CCN(Cc2ccc(C3CCC(=O)NC3=O)c(F)c2)CC1 (stereo not drawn) [GT-04043, 6-(5-cyano-1H-pyrrolo[2,3-b]pyridin-1-yl)-N-(1-(4-(2,6-dioxopiperidin-3-yl)-3-fluorobenzyl)piperidin-4-yl)-4-(isopropylamino)nicotinamide]
- IC50 (MV-4-11; [3]): 500 to 1000 nM
- IC50 (SR; [4]): 500 to 1000 nM
- IC50 (CCRF-CEM; [1]): 500 to 1000 nM
- IC50 (Jurkat): 100 to 500 nM
- IC50 (LNcap; [2]): 500 to 1000 nM

Structure (SMILES): O=C1CCC(c2ccc(CN3CCC(n4cc(NC(=O)c5coc(-c6ccnc(NCC7CC7)c6)n5)c(C(F)F)n4)CC3)cc2)C(=O)N1 (stereo not drawn) [GT-04175, 2-(2-((cyclopropylmethyl)amino)pyridin-4-yl)-N-(3-(difluoromethyl)-1-(1-(4-(2,6-dioxopiperidin-3-yl)benzyl)piperidin-4-yl)-1H-pyrazol-4-yl)oxazole-4-carboxamide]
- IC50 (MV-4-11; [3]): 500 to 1000 nM
- IC50 (CCRF-CEM; [1]): 500 to 1000 nM
- IC50 (Jurkat): 100 to 500 nM
- IC50 (LNcap; [2]): 100 to 500 nM
- Degradation of substrate protein IRAK4 (substrate protein remaining %) (IRAK4): A (A is defined as 0% ≤ substrate protein remaining % ≤ 80%)

Now from value to compound, other results behind:

- IC50 (H1975): > 10000 nM
- IC50 (MM.1R): > 10000 nM
- IC50 (MCF7): 5000 to 10000 nM
- IC50 (MV-4-11; [5]): 5000 to 10000 nM
- IC50 (22RV1): 1000 to 5000 nM
- IC50 (CCRF-CEM; [7]): > 10000 nM
- IC50 (MM.1S; [8]): 5000 to 10000 nM
Structure (SMILES): CN(C)C(=O)c1cc2cnc(Nc3ccc(N4CCNCC4)cn3)nc2n1C1CCCC1 [Ribociclib, reference compound]
- IC50 (SR; [6]): 5000 to 10000 nM
- IC50 (Kasumi-1): 1000 to 5000 nM

- IC50 (H1975): 5000 to 10000 nM
- IC50 (MM.1R): > 10000 nM
- IC50 (MCF7): 1000 to 5000 nM
- IC50 (MV-4-11; [5]): 100 to 500 nM
- IC50 (22RV1): 100 to 500 nM
- IC50 (CCRF-CEM; [7]): 1000 to 5000 nM
- IC50 (MM.1S; [8]): > 10000 nM
Structure (SMILES): CC(=O)c1c(C)c2cnc(Nc3ccc(N4CCNCC4)cn3)nc2n(C2CCCC2)c1=O [Palbociclib, reference compound]
- IC50 (SR; [6]): 1000 to 5000 nM
- IC50 (Kasumi-1): 1000 to 5000 nM

- IC50 (DU-145): 100 to 500 nM
Structure (SMILES): O=C1CCN(c2ccc(COc3ccc(Cl)cc3-c3nc4cc(C(F)(F)F)cc(Cl)c4[nH]3)cc2)C(=O)N1 [GT-06479, 1-(4-((4-chloro-2-(7-chloro-5-(trifluoromethyl)-1H-benzo[d]imidazol-2-yl)phenoxy)methyl)phenyl)dihydropyrimidine-2,4(1H,3H)-dione]

- IC50 (DU-145): 50 to 100 nM
Structure (SMILES): O=C1CCN(c2ccc(COc3ccc(Cl)cc3-c3nc4cc(C(F)(F)F)cc(Cl)c4[nH]3)cn2)C(=O)N1 [GT-06481, 1-(5-((4-chloro-2-(7-chloro-5-(trifluoromethyl)-1H-benzo[d]imidazol-2-yl)phenoxy)methyl)pyridin-2-yl)dihydropyrimidine-2,4(1H,3H)-dione]
